Source: US20220202753A1, “METHOD OF DELIVERY OF INTRAVENOUS BACLOFEN” (Allaysis, LLC, priority 2020, published 2022)
Converted amounts (≈) assume the structure as drawn.

Assays:
[1] = Study 1: two-way crossover study of oral and intravenous baclofen in healthy adult volunteers; type: in vivo, human
Source text: Study 1: Two-Way Crossover Study of Oral and Intravenous Baclofen in Healthy Adult Volunteers
The objective of the study was to characterize baclofen pharmacokinetics following oral and IV administration following low doses in healthy adult volunteers and determine the safety profile of an IV baclofen formulation.
This study was a randomized, open label, balanced, two-treatment, single dose, crossover design in normal, healthy adult human subjects under fasting conditions.
Initially, three adult volunteers received a single 3 mg IV and a 5 mg oral baclofen dose on separate study days. On the first day of drug administration in the study, one subject was given baclofen intravenously, and two subjects were given baclofen orally. On the second day of drug administration in the study, those that received baclofen orally received the TV dose and the individual who received the IV dose received the oral dose. Clinical tolerance was assessed, and plasma concentrations of baclofen were measured from the first three subjects before additional subjects were entered into the study. Nine additional adult volunteers received single 5 mg IV and 10 mg oral baclofen doses on separate days. Randomization occurred in a 1:1 ratio, such that all subjects received IV and oral baclofen on separate study days, but not necessarily in the same order. A total of twelve (12) subjects completed the clinical phase of the study. Plasma samples of 12 subjects were analyzed. However, the data from nine (9) subjects who received 5 mg IV and 10 mg oral tablet were considered for pharmacokinetic analysis and the calculation of within-subject variability. The three subjects who received 3 mg IV/5 mg oral baclofen were excluded from the pharmacokinetic analysis because more than half of the plasma concentrations were below the limit of quantitation (BLQ). Therefore, meaningful estimation of AUC was not possible for these subjects.

[2] = Study 2: dose escalation study of IV baclofen in healthy adult volunteers; type: in vivo, human; details: for subjects with asymptomatic nystagmus: 10-minute infusion, of 12 subjects; for bioavailability: human, plasma
Experimental: Study 2: Dose Escalation Study of IV Baclofen in Healthy Adult Volunteers
Following completion of the first-in-human study, a dose escalation study of IV and oral baclofen in 36 healthy volunteers was carried out using a randomized crossover oral/IV dose design and incorporating the investigational baclofen IV injection. The objectives of the study were: 1) characterize the pharmacokinetics of clinically relevant doses of oral and intravenous baclofen, 2) determine the safety profile of oral and intravenous baclofen, and 3) estimate bioequivalence parameters (AUC and Cmax) for 10- and 60-minute (only 15 mg dose) infusions of baclofen.
The general design of the study involved three cohorts of 12 subjects. Initially 3 subjects were randomized to receive the lowest dosing regimen. These subjects received a 7.5 mg IV infusion, followed by a washout period of 2 or more days, followed by a 10 mg oral dose. […] Twelve subjects completed Cohort 1 and received a […] IV and a 10 mg oral dose. The IV baclofen doses were based on a 75% bioavailability observed in the pilot study. In Cohort 2, 12 different subjects received 11.5 mg of IV and 15 mg of oral baclofen. In Cohort 3, another 12 subjects received 20 mg of oral and 15 mg of IV baclofen. Once all subjects had completed the 15 mg IV dose without complications, an additional dosing period was added to this Cohort in which 15 mg baclofen was infused over 60 in to 12 subjects. […] Blood samples were collected between 0-24 hours. A validated, liquid chromatography-mass spectroscopy assay was used to measure plasma baclofen concentrations.
Pharmacokinetic analysis was performed with Phoenix (Centara), a pharmacokinetic data analysis package. Pharmacokinetic parameters, including the observed maximum concentration (Cmax), the observed time to maximum concentration (Tmax), area under the concentration-time curve (AUC), clearance (CL), and volume of distribution (Vd), were estimated using non-compartmental analysis. The absolute oral bioavailability was calculated by dividing the dose-normalized AUC after oral dosing by the dose-normalized AUC after intravenous dosing. For an exploratory study of bioequivalence, the 90% confidence intervals of the geometric mean AUC(0-t), AUC(0-∞) and Cmax oral/AV ratios were determined using the 60-minute infusion as the test dose and the oral […] dose as the reference.

[3] = Combined results of the two pilot pharmacokinetic studies (first in human and dose escalation); type: in vivo; details: for bioavailability: human, plasma
Experimental: Two pilot studies were conducted to characterize baclofen pharmacokinetics and safety following intravenous administration and to access absolute bioavailability of IV and oral baclofen. These studies are described in: A Pilot Study Assessing Pharmacokinetics and Tolerability of Oral and Intravenous Baclofen in Healthy Adult Volunteers, Suresh K. Agarwal, Robert L. Kriel, James C. Cloyd, Lisa D. Coles, Lisa A. Scherkenbach, Michael H. Tobin, and Linda E. Krach, Journal of Child Neurology 2014, 30(1) 37-41; and A Randomized Dose Escalation Study of intravenous Baclofen in Healthy Volunteers: Clinical Tolerance and Pharmacokinetics, Schmitz N S, Krach L E, Coles L D, Mishra U, Agarwal S K, Cloyd J C, Kriel R L. PM&R, 2017, Volume 9(8), 743-750, both hereby incorporated by reference as though fully set forth herein. […] In order to meet bioequivalency criteria for both exposure (AUC) and peak concentration (Cmax), it was concluded that infusion times needed to be longer. To that end, modeling and simulation studies were performed to predict IV baclofen dosing regimens that would be bioequivalent to a 20 mg oral dose with respect to both AUC and Cm. These simulations formed the basis for a pivotal bioequivalence study where three different dosing regimens of baclofen IV (15 mg infused over 3 hours: 16 mg infused over 3 hours; and 16 mg infused over 4 hours, respectively) were compared to a single dose of a 20 mg oral tablet. Each of these IV regimens was bioequivalent to the 20 mg oral dosing but the 16 mg/3 hours dosing best met the bioequivalence criteria.
An important goal for adjusting the dose and duration of a baclofen infusion was to achieve bioequivalent systemic exposure (Cmax and AUC) between a single-dose baclofen IV infusion and a 20 mg oral baclofen tablet.

[4] = Population pharmacokinetic modeling and simulation of IV baclofen infusion duration; set-up: species or system human
Experimental: Plasma concentrations from cohorts 2 and 3 from Study 2 described above were used to build a two-compartment model simultaneously describing the IV and PO routes of administration. Population PK models were developed using data from cohort 3 and cohorts 2 and 3 combined (see FIGS. 4 and 5). It is worth noting that the PK parameter estimates from both study populations were similar. Two PK models with fixed absorption rate constants (Ka) of 0.6 and 0.8 hr^−1 were used. These were determined from estimates from the population pharmacokinetic model and literature.
To assess the effect of infusion duration on Cmax and AUC, simulations were performed using the population PK parameter estimates determined from the baclofen dose ranging study. Using the models described above, simulations (n=10) of 30 subjects were completed using a 20 mg oral dose and IV doses of 15 and 16 mg infused over 120, 150, 180, and 210 minutes. The simulated data were then analyzed using non-compartmental analysis and bioequivalence of the maximum concentration and area under the curve was assessed. FIGS. 10 and 11 summarize how many times of the 10 simulations that the infusion rate met bioequivalence when 16 and 15 mg doses were used, respectively.
To assess the effect of infusion duration on Cmax, a population pharmacokinetic model was developed using the observed plasma concentrations of baclofen following oral dosing of 20 mg and IV dosing of 15 mg infused over 10 and 60 minutes. Plasma concentrations of baclofen were best described by a two-compartment model, displaying a very rapid tissue distribution phase indicative of highly perfused tissues such as the liver, lung and brain and a more prolonged elimination phase. […] Using the PK model, baclofen concentrations for a 20t mg oral dose, a 15 mg IV dose infused over 180 minutes, and 16 mg IV dose infusions administered over 180 and 240 min were simulated. This allowed a determination of the effect of infusion duration on baclofen Cmax.

[5] = cited from earlier work
[6] = Clinical bioequivalence study of baclofen injection compared to baclofen tablets in healthy adult volunteers; type: in vivo, human
Source text: This study was designed as a two-part, single-dose bioequivalence study of baclofen injection (test formulation) compared to commercial baclofen tablets (reference product) in healthy adult volunteers under fasted conditions. Part 1 of this study was a single-dose, open-label, four-treatment, randomized, crossover bioequivalence study of baclofen tablets and baclofen injection in healthy adults under fasted conditions. If needed, Part 2 of this study was to be a single-dose, two-way crossover between the most promising infusion of baclofen injection from Part 1 and baclofen tablets.
Subjects were randomized to receive each of 4 treatments in a randomized, crossover fashion: • 15 mg of baclofen injection administered intravenously over 180 minutes • 16 mg of baclofen injection administered intravenously over 180 minutes • 16 mg of baclofen injection administered intravenously over 240 minutes • 20 mg of baclofen tablet administered orally
Each treatment administration was separated by a washout period of at least 3 days. Each dose was administered following a 10-hour overnight fast.
During each study period, 6 mL blood samples were obtained prior to study drug administration and at selected times through 48 hours after drug administration. In the study periods in which subjects received an IV infusion. PK sampling was timed relative to the start of the infusion. Plasma pharmacokinetic samples were analyzed for baclofen using a validated achiral bioanalytical method. Appropriate pharmacokinetic parameters were calculated for each formulation using non compartmental methods.
Treatments A, B, and C: • Treatment A dose:=15 mg of baclofen injection administered intravenously over 180 minutes • Treatment B dose=16 mg of baclofen injection administered intravenously over 180 minutes • Treatment C dose=16 mg of baclofen injection administered intravenously over 240 minutes
Control Product: Treatment D: • Baclofen Tablet, 20 mg, dose:=1×20 mg tablet
Concentration-time data for baclofen were analyzed using noncompartmental methods in Phoenix™ WinNonlin® Version 6.3, Certara L.P.). During the pharmacokinetic analysis, concentrations below the limit of quantitation […] up to the time of the first quantifiable concentration were treated ac zero. Embedded (values between 2 quantifiable concentrations) and/or terminal BLQ concentrations were treated as “missing”. Actual sample times, relative to the time of dose, were used in the pharmacokinetic analysis.
During each baclofen injection treatment period, samples were drawn at 0 hour (predose) and 0.5, 1.0, 1.5, 2.0, 2.5, 3.0, 3.5, 4.0, 4.5, 5.0, 6.0, 7, 8, 10, 12, 18, 24, 30, 36, and 48 hours after starting the infusion.
During the baclofen tablet administration treatment period, samples were drawn at 0 hour (predose) and at 0.25, 0.5, 0.75, 1.0, 1.5, 2.0 3.0, 3.5, 4.0, 5.0, 6.0, 7, 8, 10, 12, 18, 24, 30, 36, and 48 hours after oral administration.

[7] = 5 mg IV infused over 15 minutes vs 10 mg oral

AUC of IV dose compared with oral dose [1, 7]: similar
Cmax of IV dose compared with oral dose [1, 7]: higher
Tmax of IV dose compared with oral dose [1, 7]: earlier
bioavailability ([1]; human, plasma, 10 mg oral vs 5 mg IV, n=9, fasting, read-out: estimated mean absolute bioavailability of oral baclofen): 74%
subjects with asymptomatic nystagmus ([2]; 7.5 mg IV): 2 subjects
subjects with asymptomatic nystagmus ([2]; 11.5 mg IV): 6 subjects
subjects with asymptomatic nystagmus ([2]; 15 mg IV): 6 subjects
subjects with nystagmus ([2]; 15 mg IV, 60-minute infusion): two
bioequivalence of baclofen IV and oral baclofen by AUC0-t and AUC0-inf ([2]; 15 mg at 60-min infusion): not
bioequivalence of IV infusions and oral baclofen by Cmax ([2]; 10- and 60-minute IV infusions): not bioequivalent
bioequivalence of baclofen IV and oral baclofen by AUC0-t and AUC0-inf ([2]; 10-min infusions at all dose levels): demonstrated
mean Cmax ratio of IV infusion to oral baclofen ([2]; 10-minute IV infusion, CI 247-281%): 263%
mean Cmax ratio of IV infusion to oral baclofen ([2]; 60-minute IV infusion, CI 135-165%): 149%
bioavailability ([2]; oral, all cohorts, read-out: estimated mean bioavailability): 89%
bioavailability ([2]; cohort 2 (11.5 mg IV, 15 mg oral), read-out: bioavailability estimate): 85.8%
bioavailability ([2]; cohort 3 (15 mg IV, 20 mg oral), read-out: bioavailability estimate): 81.2%
subjects not awake (took 20 seconds to awaken) ([2]; three and a half hours after a 10 mg oral dose): one
bioavailability ([3]; oral, 45 subjects, read-out: inter-patient range of % F): 42 to 132%
bioavailability ([3]; oral, two pilot studies, 10- to 60-minute IV infusions, healthy volunteers, read-out: estimated mean bioavailability of oral baclofen): 74 to 85%
bioavailability ([3]; po, 11.5 mg, read-out: mean oral bioavailability): 80%
bioavailability ([3]; po, 15 mg, read-out: mean oral bioavailability): 85%
bioavailability ([3]; po, 45 subjects, read-out: mean bioavailability of oral baclofen following a single dose): ~86%
ratio of an IV to an oral dose ([3]; two prospective studies in healthy volunteers): 80-85%
mean bioavailability ([4]; population PK model estimate): 84%
population mean terminal t1/2 (β) ([4]; two-compartment population PK model): approximately 4.2 hours
mean distribution t1/2 ([4]; two-compartment population PK model, 20 mg oral, 15 mg IV over 10 and 60 minutes): ~18 min
geometric mean ratio vs. Treatment D (20 mg oral tablet) for AUClast ([6]; 16 mg IV over 180 minutes, 90% CI 89.7-94.6%): 92.1%
geometric mean ratio vs. Treatment D (20 mg oral tablet) for AUCinf ([6]; 16 mg IV over 180 minutes, 90% CI 89.8-94.6%): 92.2%
geometric mean ratio vs. Treatment D (20 mg oral tablet) for Cmax ([6]; 16 mg IV over 180 minutes, 90% CI 93.7-101.0%): 97.3%
median Tmax ([6]; 20 mg oral tablet, fasted): 1.0 h
conversion factor to the oral regimen giving bioequivalent substitution ([6]; IV administered over 180 minutes): 0.8
bioequivalence to the 20 mg baclofen oral tablet ([6]; all three IV infusions: 15 mg over 180 min, 16 mg over 180 min, 16 mg over 240 min): bioequivalent
half-life ([6]; human, plasma, other: intravenous infusions and oral tablet, IV infusions and oral tablet, read-out: mean T1/2): 330 to 348 min
difference in median Tmax (oral tablet earlier than IV infusions) ([6]; human, plasma, other: oral tablet versus intravenous infusions, 20 mg oral tablet vs IV infusions): 2 to 3 h
Tmax ([6]; human, plasma, across IV infusions (15 mg/180 min, 16 mg/180 min, 16 mg/240 min), read-out: median Tmax): 3 to 4 h
clearance ([6]; human, plasma, across IV infusions, read-out: mean total systemic clearance (CLT)): 147 to 148 mL/min
Vd ([6]; human, plasma, across IV infusions, read-out: mean volume of distribution (Vz)): 69.8 to 71.4 L
SMILES: NCC(CC(=O)O)c1ccc(Cl)cc1 (centres unmarked) [baclofen, 4-amino-3-[4-chlorophenyl] butanoic acid]
tolerability ([1]; 3 and 5 mg IV): well tolerated
subjects with mild transient ataxia ([2]; 15 mg IV, 60-minute infusion): Two
subjects with mild transient ataxia ([2]; 20 mg oral): One
adverse effects ([2]; following both oral and IV doses): Mild, self-limited
solubility in chloroform ([5]; chloroform): insoluble
solubility in methanol ([5]; methanol): very slightly soluble
solubility in water ([5]; water): 2090 mg/L (≈ 9.78 mM)
